Reference: patent US11365410B2, “Production and monitoring of metabolites in cells” (President and Fellows of Harvard College, priority 2015, dated 2022)

Columns and labels:
[1] = target: T1, TtgR (Pseudomonas putida), regulator sequence SEQ ID NO: 14 (Pseudomonas putida, UniProt Q9AIU0); settings: no test described; cited from earlier work
T1 construct: expressed in transfected cells; host or cells: E. coli DH5alpha transformed with pJKR-H (high copy) or pJKR-L (low copy) plasmid

acuR = assay: acuR-based 3HP biosensor induction (indirect, via acrylate); format: cell-based, Rhodobacter sphaeroides; settings: acrylate; no helper plasmid
Description: Metab Eng, 16, 130-139 hereby incorporated by reference in its entirety). All three reactions are useful for a prpR-based biosensor, but for the acuR-based biosensor, accumulation of acrylyl-CoA rather than propionyl-CoA is necessary. […] Accordingly, the domain responsible for conversion of acrylyl-CoA to propionyl-CoA was removed while preserving the activity of the other two domains. […] A 90-fold increase in fluorescence was obtained when the acuR-based biosensor was induced with 10 mM 3HP. […] Fluorescence remained at background levels for greater than 16 hours in the absence of pcs^Δ3 and ach (see FIG. 17).
Plasmids were constructed using Gibson isothermal assembly methods (see Gibson, D. G., Young, L., Chuang, R. Y., Venter, J. C., Hutchison, C. A., 3rd and Smith, H. O. (2009) Enzymatic assembly of DNA molecules up to several hundred kilobases. Nat Methods, 6, 343-345 hereby incorporated by reference in its entirety) and cloned into DH5α electrocompetent cells purchased from New England Biolabs. Biosynthesis of product molecules was carried out in either BL21 (DE3) or DH5α. The prpR-based 3HP biosensor was implemented as a two-plasmid system. The first plasmid is pPro24-GFP (Addgene plasmid #18880), which expresses GFPuv under the control of the methyl-citrate responsive transcription factor, prpR, on a pBR322 origin of replication providing β-lactam resistance. […]

[2] = target: T2, AcuR (Rhodobacter sphaeroides), regulator sequence SEQ ID NO: 9 (Cereibacter sphaeroides, UniProt Q3J6K8); assay: AcuR biosensor induction (sfGFP reporter, Hill fit); format: cell-based; settings: acrylate
T2 construct: expressed in transfected cells; host or cells: E. coli DH5alpha transformed with pJKR-H (high copy) or pJKR-L (low copy) plasmid
T2 sequence (Q3J6K8 1-219): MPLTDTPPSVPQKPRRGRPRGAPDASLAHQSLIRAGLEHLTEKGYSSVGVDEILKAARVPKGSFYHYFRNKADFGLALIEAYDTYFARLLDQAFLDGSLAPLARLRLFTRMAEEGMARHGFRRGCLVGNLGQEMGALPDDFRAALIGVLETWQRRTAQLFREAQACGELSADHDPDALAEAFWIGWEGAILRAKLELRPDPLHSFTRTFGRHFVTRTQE
Excerpt: Plasmids were constructed using Gibson isothermal assembly methods (see Gibson, D. G., Young, L., Chuang, R. Y., Venter, J. C., Hutchison, C. A., 3rd and Smith, H. O. (2009) Enzymatic assembly of DNA molecules up to several hundred kilobases. Nat Methods, 6, 343-345 incorporated herein by reference in its entirety) and transformed into DH5α electrocompetent cells (New England Biolabs, Ipswich Mass.). […] Each inducible system was implemented on high and low copy plasmids. High copy pJKR-H plasmids were constructed with the pUC origin and beta lactamase antibiotic resistance marker derived from pUC19 (New England Biolabs, Ipswich Mass.). Low copy pJKR-L plasmids were constructed in the same way, except that the pUC origin was replaced by the SC101 origin (including repA) from pSC101 obtained from American Type Culture Collection (ATCC #37032). […] In both these plasmids the antibiotic resistance gene and origin of replication were replaced with p15a-aadA and colA-kanR. Each enzyme was cloned downstream of the constitutive promoter P2 (see Mutalik, V. K., Guimaraes, J. C., Cambray, G., Lam, C., Christoffersen, M. J., Mai, Q. A., Tran, A. B., Paull, M., Keasling, J. D., Arkin, A. P. et al. (2013) Precise and reliable gene expression via standard transcription and translation initiation elements. Nat Methods, 10, 354-360 hereby incorporated by reference in its entirety) and g10 RBS to create pJKR-MIOX variants. These expression plasmids used the colA origin of replication and kanamycin resistance gene for maintenance. Sequences and plasmids are available on Addgene (plasmid numbers 62557-62570).
DH5α cells transformed with pJKR plasmids and maintained with carbenicillin were used in the induction assays. For each induction evaluation experiment, the cells were grown overnight to saturation before being diluted 1:100 into fresh LB media and incubated at 200 RPM and 37° C. […] Measurements were made on the same Biotek (Winooksi, Vt.) HT plate reader using the same settings: excitation 485/20, emission 528/20, 37° C. and fast shaking. Fluorescence and absorbance were measured every 10 minutes for 15 hours. Fluorescence was measured in arbitrary units (AFU) while optical density was determined by absorbance (OD). Normalized fluorescence was determined by dividing fluorescence by optical density for a given measurement. […]
The ratio of fluorescence to absorbance at 600 nm was used in order to compensate for changes in cell density over time and between experiments (AFU/OD). […] This transfer function is plotted on a log-log scale in FIG. 1A and FIG. 1B to capture the wide range of inducer concentrations and resulting fluorescence values. […]

E. coli DH5α cells = assay: Toxicity of inducer chemicals (growth)
Description: Growth rate was measured for each combination of chemical and concentration during the exponential phase of growth. Rates were normalized to the growth rate of cells without any added chemical and plotted as bar height. Concentration of each inducer is indicated in the table, corresponding to the bar chart by order and color. […] Inducer concentrations mirror the concentrations used in the induction experiments.
150 μl of cells were transferred into 96-well plates and the assayed chemical was immediately added in triplicate before further incubation at 600 RPM and 37° C.
Toxicity of the inducer chemicals was measured to help guide the choice of inducer concentration for biosensor applications. In applications where maximum protein production is the goal, toxicity will be less of a consideration. In contrast, sub-toxic induction is important for complex circuits that require the cell to maintain a healthy cell state.

O=C(N[C@H](CO)[C@H](O)c1ccc([N+](=O)[O-])cc1)C(Cl)Cl [Chloramphenicol, chloramphenicol]
Activation of TtgR by chloramphenicol [1]: activation

C=CC(=O)O [Acrylate, acrylate]
Response of acrylate biosensor without helper plasmid (acuR): respond to acrylate | Hill Coefficient ([2]; high copy): 3.2 ± 0.3 | Max Expression Velocity ([2]; high copy): 910 ± 40 s⁻¹ | Hill Coefficient ([2]; low copy): 1.3 ± 0.1 | Max Expression Velocity ([2]; low copy): 150 ± 10 s⁻¹ | Toxicity in induction experiment (E. coli DH5α cells; 10 mM acrylate): high toxicity | Toxicity (E. coli DH5α cells; acrylate 5 mM and 10 mM): substantial toxicity
